The results in this text go back to patent US9315490B2, “2,5-substituted pyrimidines” (Grünenthal GmbH, priority 2014, dated 2016).

The target of experiment [1] is T1, human PDE4B1 (Homo sapiens, UniProt Q07343).
T1 construct: host or cells: Sf9 cells
The experiment is described as follows: TR-FRET assay using the LANCE Ultra cAMP kit to determine the activity of hPDE4B1. As to conditions: for inhibition at 10 µM / inhibition at 1 µM: read-out: Inhibition in % (inhibition of PDE4B). The experiment is classed as biochemical. The text has this:
TR-FRET Assay Using the LANCE® Ultra cAMP Kit to Determine the Activity of hPDE4B1
The effects of the compounds on the activity of the human PDE4B1 was quantified by measuring the production of 5′AMP from cAMP using a human recombinant enzyme expressed in Sf9 cells and the LANCE® Ultra cAMP kit, a TR-FRET detection method from PerkinElmer. The human PDE4B1 enzyme was purchased from SignalChem Lifesciences (Catalog# P92-31BG, Lot# H296-2).
The test compound, reference compound or water (control) was mixed with the enzyme (0.96 U) in a reaction buffer containing 50 mM Tris-HCl, 50 mM MgCl2 and 5 mM DTT (pH 8.5). Thereafter, the reaction was initiated by addition of 500 nM cAMP (substrate) and the mixture was incubated for 30 minutes at room temperature. For control basal measurements, the enzyme was omitted from the reaction mixture. After 30 minutes, the reaction was stopped and diluted by a factor of 100 with the reaction buffer supplemented with 500 μM IBMX. The fluorescence donor (europium chelate-labeled cAMP) and the fluorescence acceptor (anti-cAMP antibody labeled with the ULight™ dye) were then added together with 500 μM IBMX to a 10 μl aliquot. After 60 minutes, the fluorescence transfer corresponding to the amount of residual cAMP was measured at λex=337 nm, λem=620 nm and λem=665 nm using a microplate reader (PHERAstar, BMG). The enzyme activity was determined by dividing the signal measured at 665 nm by that measured at 620 nm (ratio) multiplied by 10000. The results were expressed as percent inhibition of the control enzyme activity. IC50 values (IC50=concentration causing a half-maximal inhibition of control specific activity) were derived from dose response measurements with ten different concentrations (n=3; N=1-3).
In general terms: In TR-FRET formats the signal depends on donor and acceptor labels being close together.

Experiment [2] concerns the target T1, human PDE4B1. The experiment is described as follows: cAMP HTRF assay to determine the activity of hPDE4B1. Type of experiment: biochemical. As to conditions: inhibition of PDE4B at a test concentration of 1 μM. The method in brief: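 […], using HTRF quantitation of residual cAMP after 1 mM IBMX stop and 60 min detection. Enzyme was Sf9-expressed human PDE4B1 incubated 30 min at room temperature with 40 nM final cAMP at pH 7.8.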

Setting [3] is: test concentration 10 μM (marked in cell).

The structures appear in SMILES notation.

T1 sequence (Q07343 whole entry): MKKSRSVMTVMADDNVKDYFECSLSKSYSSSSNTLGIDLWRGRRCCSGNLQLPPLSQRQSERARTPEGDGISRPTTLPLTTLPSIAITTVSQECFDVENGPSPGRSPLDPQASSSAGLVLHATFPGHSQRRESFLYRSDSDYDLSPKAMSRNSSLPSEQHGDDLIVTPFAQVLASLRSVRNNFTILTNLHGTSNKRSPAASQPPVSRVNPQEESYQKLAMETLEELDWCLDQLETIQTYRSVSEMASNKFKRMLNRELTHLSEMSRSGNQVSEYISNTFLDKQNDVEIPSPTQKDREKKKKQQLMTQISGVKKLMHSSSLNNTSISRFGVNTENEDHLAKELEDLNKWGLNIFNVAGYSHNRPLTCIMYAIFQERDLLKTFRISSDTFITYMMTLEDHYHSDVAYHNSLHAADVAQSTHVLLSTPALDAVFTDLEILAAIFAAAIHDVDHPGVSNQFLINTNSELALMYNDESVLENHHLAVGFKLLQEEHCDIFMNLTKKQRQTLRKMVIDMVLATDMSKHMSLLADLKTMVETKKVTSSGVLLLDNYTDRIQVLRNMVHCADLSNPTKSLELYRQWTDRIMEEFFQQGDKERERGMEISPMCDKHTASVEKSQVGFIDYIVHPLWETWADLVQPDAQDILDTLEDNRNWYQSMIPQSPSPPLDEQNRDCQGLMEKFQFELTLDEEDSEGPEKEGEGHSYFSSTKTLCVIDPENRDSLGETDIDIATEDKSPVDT

On to `CCc1ccnc(-c2cnc(-n3cc(S(C)(=O)=O)c4ccc(C(=O)N5CCOCC5)cc43)nc2)c1` [Example 325, (1-(5-(4-Ethylpyridin-2-yl)pyrimidin-2-yl)-3-(methylsulfonyl)-1H-indol-6-yl)(morpholino)methanone], for which, on human PDE4B1 [1] (setting [3]), the inhibition (usually the relative decrease from the control value, in per cent) at 10 µM stood at 91%. With `C[S+]([O-])c1cn(-c2ncc(-c3ccccc3F)cn2)c2cc(C(=O)N3CC[C@@H](CO)C3)ccc12` (stereo partly drawn) [Example 302, (1-(5-(2-Fluorophenyl)pyrimidin-2-yl)-3-(methylsulfinyl)-1H-indol-6-yl)((R)-3-(hydroxymethyl)pyrrolidin-1-yl)methanone], the inhibition at 10 µM at human PDE4B1 [1] (setting [3]) was found to be 103%. Take `CC(O)c1ccnc(-c2cnc(-n3cc([S+](C)[O-])c4ccc(C(=O)N5CCOCC5)cc43)nc2)c1` (stereo not shown) [Example 300, (1-(5-(4-(1-Hydroxyethyl)pyridin-2-yl)pyrimidin-2-yl)-3-(methylsulfinyl)-1H-indol-6-yl)(morpholino)methanone]: on human PDE4B1 [1] (test concentration 1 μM, 1 µM), the “Inhibition in % (inhibition of PDE4B)” value worked out at 93%. Regarding `CS(=O)(=O)c1cn(-c2ncc(-c3cc(C4CC4)ccn3)cn2)c2cc(C(=O)N3CCOCC3)ccc12` [Example 327, (1-(5-(4-Cyclopropylpyridin-2-yl)pyrimidin-2-yl)-3-(methylsulfonyl)-1H-indol-6-yl)(morpholino)methanone], the inhibition at 10 µM at human PDE4B1 [1] (setting [3]) came out at 90%. Consider `CCc1ccc(F)c(-c2cnc(-n3cc([S+](C)[O-])c4ccc(C(=O)N5CCOCC5)cc43)nc2)c1` (stereo not shown) [Example 276, (1-(5-(5-Ethyl-2-fluorophenyl)pyrimidin-2-yl)-3-(methylsulfinyl)-1H-indol-6-yl)(morpholino)methanone], for which the inhibition at 1 µM on human PDE4B1 [1] (test concentration 1 μM) was determined as 106%. `C[S+]([O-])c1cn(-c2ncc(-c3cc(NCC4CC4)ccc3F)cn2)c2cc(C(=O)N3CCOCC3)ccc12` (stereo not shown) [Example 290, (1-(5-(5-((Cyclopropylmethyl)amino)-2-fluorophenyl)pyrimidin-2-yl)-3-(methylsulfinyl)-1H-indol-6-yl)(morpholino)methanone]: at human PDE4B1 [1] (setting [3]), the inhibition at 10 µM was found to be 97%. For `CC(O)c1ccc(F)c(-c2cnc(-n3cc(S(C)(=O)=O)c4ccc(C(=O)N5CCOCC5)cc43)nc2)c1` (single isomer, unassigned) [Example 345, (1-(5-(2-Fluoro-5-(1-hydroxyethyl)phenyl)pyrimidin-2-yl)-3-(methylsulfonyl)-1H-indol-6-yl)(morpholino)methanone], the “Inhibition in % (inhibition of PDE4B)” value on human PDE4B1 [1] (test concentration 10 μM (marked in cell), 10 µM) is listed as 95 (10 μM) %.

Regarding `Cc1ccnc(-c2cnc(-n3cc([S+](C)[O-])c4ccc(C(=O)N(C)CC(N)=O)cc43)nc2)c1` (stereo not shown) [Example 282, N-(2-Amino-2-oxoethyl)-N-methyl-1-(5-(4-methylpyridin-2-yl)pyrimidin-2-yl)-3-(methylsulfinyl)-1H-indole-6-carboxamide], the inhibition at 1 µM at human PDE4B1 [1] (test concentration 1 μM) is 90%. Still for that read-out and setting: the same measure for `Cc1cccc(-c2cnc(-n3cc([S+](C)[O-])c4ccc(C(=O)N5C[C@@H]6C[C@H]5CN6)cc43)nc2)n1` (stereo partly drawn) [Example 247, (1S,4S)-2,5-Diazabicyclo[2.2.1]heptan-2-yl(1-(5-(6-methylpyridin-2-yl)pyrimidin-2-yl)-3-(methylsulfinyl)-1H-indol-6-yl)methanone]: 90%; for `CC(C)c1ccnc(-c2cnc(-n3cc(S(C)(=O)=O)c4ccc(C(=O)N5CCOCC5)cc43)nc2)c1` [Example 324, (1-(5-(4-Isopropylpyridin-2-yl)pyrimidin-2-yl)-3-(methylsulfonyl)-1H-indol-6-yl)(morpholino)methanone]: 76%; for `C[S+]([O-])c1cn(-c2ncc(-c3cc(N4CCCC4)ccn3)cn2)c2cc(C(=O)N3CCOCC3)ccc12` (stereo not shown) [Example 297, (3-(Methylsulfinyl)-1-(5-(4-(pyrrolidin-1-yl)pyridin-2-yl)pyrimidin-2-yl)-1H-indol-6-yl)(morpholino)methanone]: 93%. `C[S+]([O-])c1cn(-c2ncc(-c3cc(C4CC4)ccn3)cn2)c2cc(C(=O)N3CCCC3)ccc12` (stereo not shown) [Example 341, (1-(5-(4-Cyclopropylpyridin-2-yl)pyrimidin-2-yl)-3-(methylsulfinyl)-1H-indol-6-yl)(pyrrolidin-1-yl)methanone]: the inhibition at 10 µM on human PDE4B1 [1] (setting [3]) was 108%. As for `COc1ccc(F)c(-c2cnc(-n3cc([S+](C)[O-])c4ccc(C(=O)N(C)C)cc43)nc2)c1` (stereo not shown) [Example 268, 1-(5-(2-Fluoro-5-methoxyphenyl)pyrimidin-2-yl)-N,N-dimethyl-3-(methylsulfinyl)-1H-indole-6-carboxamide], on human PDE4B1 [1] (test concentration 1 μM), the inhibition at 1 µM came to 95%. As for `Cc1cccc(-c2cnc(-n3cc([S+](C)[O-])c4ccc(C(=O)N(C)C)cc43)nc2)n1` (stereo not shown) [Example 314, N,N-Dimethyl-1-(5-(6-methylpyridin-2-yl)pyrimidin-2-yl)-3-(methylsulfinyl)-1H-indole-6-carboxamide], the inhibition at 10 µM on human PDE4B1 [1] (setting [3]) was determined as 98%. As to `COc1ccc(F)c(-c2cnc(-n3cc([S+](C)[O-])c4ccc(C(=O)N(C)CC(N)=O)cc43)nc2)c1` (stereo not shown) [Example 279, N-(2-Amino-2-oxoethyl)-1-(5-(2-fluoro-5-methoxyphenyl)pyrimidin-2-yl)-N-methyl-3-(methylsulfinyl)-1H-indole-6-carboxamide], the inhibition at 1 µM on human PDE4B1 [1] (test concentration 1 μM) came out at 97%. Still for that read-out and setting: next, `CCc1ccnc(-c2cnc(-n3cc([S+](C)[O-])c4ccc(C(=O)N5CCCC5)cc43)nc2)c1` (stereo not shown) [Example 277, (1-(5-(4-Ethylpyridin-2-yl)pyrimidin-2-yl)-3-(methylsulfinyl)-1H-indol-6-yl)(pyrrolidin-1-yl)methanone]: 93%; `C[S+]([O-])c1cn(-c2ncc(-c3cc(C(C)(C)O)ccc3F)cn2)c2cc(C(=O)N3CCOCC3)ccc12` (stereo not shown) [Example 293, (1-(5-(2-Fluoro-5-(2-hydroxypropan-2-yl)phenyl)pyrimidin-2-yl)-3-(methylsulfinyl)-1H-indol-6-yl)(morpholino)methanone]: 94%. As to `C[S+]([O-])c1cn(-c2ncc(-c3cccc(F)n3)cn2)c2cc(C(=O)N3CCOCC3)ccc12` (stereo not shown) [Example 185, (1-(5-(6-Fluoropyridin-2-yl)pyrimidin-2-yl)-3-(methylsulfinyl)-1H-indol-6-yl)(morpholino)methanone], on human PDE4B1 [2], the inhibition at 1 µM is 97%.

Take `C[S+]([O-])c1cn(-c2ncc(-c3ccccc3F)cn2)c2cc(C(=O)N3CCN(CCC#N)CC3)ccc12` (stereo not shown) [Example 391, 3-(4-(1-(5-(2-Fluorophenyl)pyrimidin-2-yl)-3-(methylsulfinyl)-1H-indole-6-carbonyl)piperazin-1-yl)propanenitrile]: the inhibition at 1 µM on human PDE4B1 [2] was 31%. Turning to `C[S+]([O-])c1cn(-c2ncc(-c3ccccc3F)cn2)c2cc(C(=O)N3CCC[C@@H]3CO)ccc12` (stereo partly drawn) [Example 78, (1-(5-(2-Fluorophenyl)pyrimidin-2-yl)-3-(methylsulfinyl)-1H-indol-6-yl)((R)-2-(hydroxymethyl)pyrrolidin-1-yl)methanone], the inhibition at 1 µM on human PDE4B1 [2] was determined as 70%.

As to `CN(C(=O)c1ccc2c([S+](C)[O-])cn(-c3ncc(-c4ccccc4F)cn3)c2c1)C1CCOCC1` (stereo not shown) [Example 382, 1-(5-(2-Fluorophenyl)pyrimidin-2-yl)-N-methyl-3-(methylsulfinyl)-N-(tetrahydro-2H-pyran-4-yl)-1H-indole-6-carboxamide], the inhibition at 1 µM on human PDE4B1 [2] stood at 0%. Take `CS(=O)(=O)c1cn(-c2ncc(-c3ccccc3)cn2)c2cc(C(=O)N3CC[C@@H](N)C3)ccc12` [Example 228, (R)-(3-Aminopyrrolidin-1-yl)(3-(methylsulfonyl)-1-(5-phenylpyrimidin-2-yl)-1H-indol-6-yl)methanone]: the inhibition at 1 µM against human PDE4B1 [2] came out at 104%.
